Experiments:
SiaP (SiaP-His6) [1] = target: T1, SiaP (SiaP-His6) (Haemophilus influenzae, UniProt P44542); assay: intrinsic tyrosine fluorescence titration; type: binding; conditions: 50 mM Tris/HCl, pH 8.0; 0.05 μM protein
T1 construct: C-terminal His6 tag; expressed in E. coli BL21(DE3) pLysS (pET21b, pAH16) with native signal peptide, purified from periplasm

SiaP (SiaP-His6) [2] = target: SiaP (SiaP-His6) (Haemophilus influenzae, UniProt P44542, R170K/F193W); conditions: 50 mM Tris/HCl, pH 8.0; 0.5 μM protein
SiaP (SiaP-His6) [3] = target: SiaP (SiaP-His6) (Haemophilus influenzae, UniProt P44542, F193W); conditions: 50 mM Tris/HCl, pH 8.0
Chain of SiaP (SiaP-His6) (Haemophilus influenzae, UniProt P44542, F193W) (P44542 24-329 F193W): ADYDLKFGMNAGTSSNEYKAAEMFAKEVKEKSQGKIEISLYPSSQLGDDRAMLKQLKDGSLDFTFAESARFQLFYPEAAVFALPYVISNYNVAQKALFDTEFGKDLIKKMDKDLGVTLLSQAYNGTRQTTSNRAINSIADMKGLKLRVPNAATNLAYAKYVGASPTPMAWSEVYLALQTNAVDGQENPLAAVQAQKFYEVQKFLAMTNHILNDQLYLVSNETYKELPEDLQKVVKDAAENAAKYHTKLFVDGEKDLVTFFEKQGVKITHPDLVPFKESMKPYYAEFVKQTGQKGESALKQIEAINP

Chain of SiaP (SiaP-His6) (Haemophilus influenzae, UniProt P44542, R170K/F193W) (P44542 24-329 R170K/F193W): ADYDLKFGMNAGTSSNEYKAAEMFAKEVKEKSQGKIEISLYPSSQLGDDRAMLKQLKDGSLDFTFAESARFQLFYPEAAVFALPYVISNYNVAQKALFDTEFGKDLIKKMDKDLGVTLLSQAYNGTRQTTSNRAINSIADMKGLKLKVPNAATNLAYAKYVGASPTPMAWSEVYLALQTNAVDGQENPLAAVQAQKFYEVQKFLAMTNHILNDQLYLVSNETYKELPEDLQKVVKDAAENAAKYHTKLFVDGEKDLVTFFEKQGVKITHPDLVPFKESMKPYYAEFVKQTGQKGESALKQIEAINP
T1 sequence (P44542 24-329): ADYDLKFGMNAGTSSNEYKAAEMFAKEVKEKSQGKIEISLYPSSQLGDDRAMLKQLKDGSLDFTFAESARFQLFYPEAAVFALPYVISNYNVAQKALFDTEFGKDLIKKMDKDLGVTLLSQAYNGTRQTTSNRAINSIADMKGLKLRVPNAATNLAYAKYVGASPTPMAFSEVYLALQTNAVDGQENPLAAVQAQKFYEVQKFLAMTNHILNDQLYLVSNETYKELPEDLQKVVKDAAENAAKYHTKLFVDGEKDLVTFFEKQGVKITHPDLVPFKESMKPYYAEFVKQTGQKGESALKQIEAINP

SMILES: CC(=O)N[C@H]1[C@H]([C@H](O)[C@H](O)CO)OC(O)(C(=O)O)C[C@@H]1O (stereo partly drawn) [Neu5Ac]
- Kd (SiaP (SiaP-His6) [1]): 140 ± 40 nM
- Kd (SiaP (SiaP-His6) [2]): 38.7 ± 8.3 mM
- Kd (SiaP (SiaP-His6) [3]): 1210 ± 30 nM

— paper PMC4646407, “Tripartite ATP-independent Periplasmic (TRAP) Transporters Use an Arginine-mediated Selectivity Filter for High Affinity Substrate Binding” (The Journal of Biological Chemistry, 2015)
